Values quoted from earlier work as cited in patent US9511078B2, “Self-nanoemulsion of poorly soluble drugs” (Kashiv Pharma, LLC, priority 2013, dated 2016).

Experiments:
[1] = high-fat meal (57% fat, 825 calories)

SMILES	Abiraterone AUC0-∞, fold higher with food [1]	Abiraterone Cmax, fold higher with food [1]	Log P
CC(=O)O[C@H]1CC[C@@]2(C)C(=CC[C@@H]3[C@@H]2CC[C@]2(C)C(c4cccnc4)=CC[C@@H]32)C1 [Abiraterone acetate]	~10 fold	approximately 17 fold	–
CC(=O)[C@H]1CC[C@H]2[C@@H]3CCC4=CC(=O)CC[C@]4(C)[C@H]3CC[C@]12C [Progesterone, pregn-4-ene-3,20-dione]	–	–	3.5
